Counter-ions that a name gives are not always drawn. Like-named read-outs stand apart in the source and are kept apart here.
Assays:
PDK1 = PDK1 (Homo sapiens (Human), UniProt O15530); assay: PDK1 kinase assay (coupled PDK1/AKT/FAM-crosstide assay, IMAP fluorescence polarization); assay type: biochemical
Summary of the method: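 Inhibition is derived by 4-parameter fitting of ΔmP from an IMAP fluorescence polarization read of FAM-crosstide (100 nM) phosphorylation. The cascade ran 30 min at 25 °C with 40 μM ATP, using insect-cell GST-PDK1 51-359 (0.75 nM) driving 10 nM unphosphorylated AKT2 140-467-PIFtide fusion.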

[1] = system: phospho-akt (Thr308) in PC-3 cells; assay: Inhibition of phospho-akt (Thr308) in PC-3 cells, MSD phospho-akt 308 ELISA kit; assay type: cell-based; conditions: Homo sapiens, 2 hours, no serum, read-out: EC50
Summary of the method: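 Serum-free 2 h compound exposure of overnight-seeded PC-3 cells, threefold dilution series; lysates analysed on blocked MSD plates (3% BSA) for Thr308-phosphorylated Akt, normalised between DMSO and 5 μM wortmannin wells.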

[2] = inhibition of phospo-PDK1 in vitro
[3] = inhibition of P308 Akt in PC-3 cells, MSD
[4] = inhibition of P308 Akt in PC-3 cells using MSD

Sequence of PDK1 (O15530 51-359): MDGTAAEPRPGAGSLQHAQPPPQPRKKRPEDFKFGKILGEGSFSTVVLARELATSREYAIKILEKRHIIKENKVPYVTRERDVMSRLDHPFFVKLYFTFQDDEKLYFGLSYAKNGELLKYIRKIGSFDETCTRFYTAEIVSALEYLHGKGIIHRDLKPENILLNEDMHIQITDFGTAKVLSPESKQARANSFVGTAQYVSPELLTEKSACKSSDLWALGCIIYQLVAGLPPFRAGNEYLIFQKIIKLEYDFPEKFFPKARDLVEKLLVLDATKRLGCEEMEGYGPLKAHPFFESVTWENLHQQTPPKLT

SMILES: Nc1ncnc2ccc(-c3ccc(CNc4ncccc4C(=O)NCc4cccc(F)c4)s3)cc12 [Example 3.9, 2-({[5-(4-aminoquinazolin-6-yl)thiophen-2-yl]methyl}amino)-N-(3-fluorobenzyl)pyridine-3-carboxamide (TFA salt)]
- IC50 (PDK1; [2]): < 0.1 µM
- EC50 [1, 3]: < 1 µM

SMILES: CCC(C)n1cc(-c2ccc(CNc3ncc(C(F)(F)F)cc3C(=O)Nc3ccc(F)cc3)cc2)c2c(N)ncnc21 (stereo not shown) [Example 441, 2-(4-(4-amino-7-sec-butyl-7H-pyrrolo[2,3-d]pyrimidin-5-yl)benzylamino)-N-(4-fluorophenyl)-5-(trifluoromethyl)nicotinamide]
- IC50 (PDK1; [2]): < 0.1 µM
- EC50 [1, 4]: > 10 µM

SMILES: C[C@H](NC(=O)c1cccnc1NCc1ccc(-c2cn(C3CCC3)c3ncnc(N)c23)cc1)c1ccc(F)cc1 [Example 346, (S)-2-(4-(4-amino-7-cyclobutyl-7H-pyrrolo [2,3-d]pyrimidin-5-yl)benzylamino)-N-(1-(4-fluorophenyl)ethyl)nicotinamide]
- IC50 (PDK1; inhibition of PDK1 in vitro): 0.1 to 1 µM
- EC50 ([1]; PC-3, 2 h, inhibition of P308 Akt in PC-3 cells using MSD): < 1 µM

SMILES: CCCc1n[nH]c2ncc(-c3ccc(CNc4ncc(C#N)cc4C(=O)N[C@@H](C)c4ccc(F)cc4)cc3)cc12 [Example 147, (S)-5-cyano-N-(1-(4-fluorophenyl)ethyl)-2-(4-(3-propyl-1H-pyrazolo[3,4-b]pyridin-5-yl)benzyl-amino)nicotinamide]
- IC50 (PDK1; inhibition of PDK1 in vitro): < 0.1 µM
- EC50 [1, 4]: 1 to 10 µM

SMILES: O=C(NCc1ccc(F)c(F)c1)c1cccnc1NCc1ccc(-c2ccc3ncnc(N4CCC4)c3c2)s1 [Example 4.9, 2-(((5-(4-(azetidin-1-yl)quinazolin-6-yl)thiophen-2-yl)methyl)amino)-N-(3,4-difluorobenzyl)nicotinamide]
- IC50 (PDK1; [2]): < 0.1 µM
- EC50 [1, 3]: 1 to 10 µM

SMILES: Nc1ncc(-c2ccc(CNc3ncc(C(F)(F)F)cc3C(=O)Nc3ccc(F)cc3)cc2)nc1CCC1CCCNC1 (stereo not shown) [Example 77, 2-{4-[5-Amino-6-(2-piperidin-3-yl-ethyl)-pyrazin-2-yl]-benzylamino}-N-(4-fluoro-phenyl)-5-trifluoromethyl-nicotinamide]
- IC50 (PDK1; inhibition of PDK1 in vitro): < 0.1 µM
- EC50 [1, 4]: 1 to 10 µM

SMILES: C[C@H](NC(=O)c1cc(C#N)cnc1NCc1ccc(-c2cnc(N)c(CC3CCNC3)n2)cc1)c1ccc(F)cc1 (stereo partly drawn) [Example 185, 2-[4-(5-Amino-6-pyrrolidin-3-ylmethyl-pyrazin-2-yl)-benzylamino]-5-cyano-N-[(S)-1-(4-fluoro-phenyl)-ethyl]-nicotinamide]
- IC50 (PDK1; inhibition of PDK1 in vitro): < 0.1 µM
- EC50 [1, 4]: < 1 µM

SMILES: N#Cc1cnc(NCc2ccc(-c3cnc4[nH]c(=O)[nH]c4c3)cc2)c(C(=O)NCc2ccc(F)cc2)c1 [Example 358, 5-cyano-N-(4-fluorobenzyl)-2-(4-(2-oxo-2,3-dihydro-1H-imidazo[4,5-b]pyridin-6-yl)benzylamino)nicotinamide]
- IC50 (PDK1; inhibition of PDK1 in vitro): < 0.1 µM
- EC50 [1, 4]: < 1 µM

SMILES: C[C@H](NC(=O)c1cc(C#N)cnc1Nc1ccc(-c2cnc3[nH]nc(N)c3c2)cc1)c1ccc(F)cc1 [Example 424, (S)-2-(4-(3-amino-1H-pyrazolo[3,4-b]pyridin-5-yl)phenylamino)-5-cyano-N-(1-(4-fluorophenyl)ethyl)nicotinamide]
- IC50 (PDK1; inhibition of PDK1 in vitro): < 0.1 µM
- EC50 [1, 4]: 1 to 10 µM

SMILES: Nc1ncnc2ccc(-c3ccc(CNc4ncccc4C(=O)NCc4ccc(F)c(F)c4)s3)cc12 [Example 4.4, 2-(((5-(4-aminoquinazolin-6-yl)thiophen-2-yl)methyl)amino)-N-(3,4-difluorobenzyl)nicotinamide]
- IC50 (PDK1; [2]): < 0.1 µM
- EC50 [1, 3]: < 1 µM

SMILES: C[C@@H](NC(=O)c1cc(C(F)(F)F)cnc1NCc1ccc(-c2cnc3[nH]nc(N)c3c2)cc1)c1ccc(Br)cc1 [Example 275, (R)-2-(4-(3-amino-1H-pyrazolo[3,4-b]pyridin-5-yl)benzylamino)-N-(1-(4-bromophenyl)ethyl)-5-(trifluoromethyl) nicotinamide]
- IC50 (PDK1; inhibition of PDK1 in vitro): > 5 µM
- EC50 [1, 4]: > 10 µM
